Legend:
[1] = molecular target: T1, angiotensin converting enzyme (Oryctolagus cuniculus, UniProt P12822); assay: Inhibition of hippuryl-L-histidyl-L-leucine hydrolysis by angiotensin converting enzyme; format: biochemical; conditions: rabbit lung ACE, substrate HHL 5 mM, 37° C., 30 min
T1 construct: A crude angiotensin converting enzyme supernatant is obtained by blending 1 gm. of rabbit lung acetone powder; tissue PelFreez Biologicals; host or cells: rabbit lung acetone powder
T1 sequence (P12822 34-1310): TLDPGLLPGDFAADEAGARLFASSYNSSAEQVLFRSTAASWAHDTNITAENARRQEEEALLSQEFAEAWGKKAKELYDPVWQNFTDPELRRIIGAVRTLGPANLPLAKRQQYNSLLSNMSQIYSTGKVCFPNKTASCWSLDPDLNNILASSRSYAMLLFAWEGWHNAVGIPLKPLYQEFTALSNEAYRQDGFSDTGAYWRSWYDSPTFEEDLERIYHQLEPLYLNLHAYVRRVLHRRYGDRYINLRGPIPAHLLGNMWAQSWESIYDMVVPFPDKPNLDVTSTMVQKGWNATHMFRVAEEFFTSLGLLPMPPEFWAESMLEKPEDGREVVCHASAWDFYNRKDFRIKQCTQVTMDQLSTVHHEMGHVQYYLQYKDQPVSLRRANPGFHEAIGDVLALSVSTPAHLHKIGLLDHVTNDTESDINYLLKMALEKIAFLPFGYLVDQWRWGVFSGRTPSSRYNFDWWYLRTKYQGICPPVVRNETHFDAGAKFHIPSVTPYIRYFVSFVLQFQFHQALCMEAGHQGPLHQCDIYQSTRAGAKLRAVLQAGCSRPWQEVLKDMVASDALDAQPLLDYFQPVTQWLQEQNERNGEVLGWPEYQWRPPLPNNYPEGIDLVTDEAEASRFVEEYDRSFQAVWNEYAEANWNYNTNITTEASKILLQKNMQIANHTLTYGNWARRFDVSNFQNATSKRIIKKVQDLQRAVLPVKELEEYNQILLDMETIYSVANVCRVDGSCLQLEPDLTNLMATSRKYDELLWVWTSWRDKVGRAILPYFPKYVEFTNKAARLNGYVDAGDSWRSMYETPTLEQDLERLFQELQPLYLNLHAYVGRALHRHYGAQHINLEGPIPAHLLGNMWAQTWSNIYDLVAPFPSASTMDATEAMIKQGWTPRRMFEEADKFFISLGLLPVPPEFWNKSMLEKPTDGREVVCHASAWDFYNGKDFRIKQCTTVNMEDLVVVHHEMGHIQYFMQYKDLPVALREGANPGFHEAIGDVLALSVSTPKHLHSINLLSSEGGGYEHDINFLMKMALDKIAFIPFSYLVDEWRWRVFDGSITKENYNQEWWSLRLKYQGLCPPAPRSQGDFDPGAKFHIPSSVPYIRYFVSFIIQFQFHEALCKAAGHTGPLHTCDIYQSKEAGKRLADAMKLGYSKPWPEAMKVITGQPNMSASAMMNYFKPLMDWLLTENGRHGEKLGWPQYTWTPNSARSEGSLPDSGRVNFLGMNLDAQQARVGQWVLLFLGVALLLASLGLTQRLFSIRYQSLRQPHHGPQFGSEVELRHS
Experimental: The activity of the compounds of this invention was established by incubation of hippuryl-L-histidyl-L-leucine at 37° C. with angiotensin converting enzyme by the following procedure:
A crude angiotensin converting enzyme supernatant is obtained by blending 1 gm. of rabbit lung acetone powder (PelFreez Biologicals) with 35 ml. of 50 mM (buffered) potassium phosphate, pH 8.3 and centrifuging for 45 min. at 40,000×g.
The specific angiotensin converting enzyme substrate Hippuryl-L-histidyl-L-leucine (HHL-Sigma Chem. Co.) is prepared at 5 mM in 200 mM potassium phosphate buffer containing 757 mM NaCl at pH 8.3.
Incubation for the assay of HHL hydrolysis by angiotensin converting enzyme is carried out in a 37° C. gyrorotary incubator in disposable 13×100 mm tubes. Each 0.25 ml assay mixture contains the following components at the final concentrations: potassium phosphate buffer, 100 mM; NaCl, 300 mM; HHL, 5 mM; and enzyme 0.15 ml (10 mU approx.) added last to initiate the reaction. Zero time controls have 0.25 ml of 2N HCl added before the enzyme. The timed reactions are terminated with acid at 30 min. similarly and the hippuric acid freed from substrate is extracted into 1.5 ml of ethyl acetate layer is transferred to a clean tube. […]
The hippuric acid is resuspended in 1.0 ml of water, the absorbance at […] is determined, and the amount present is calculated from a standard curve. […]

[2] = tested on: male spontaneously hypertensive rats; assay: Systolic blood pressure in male spontaneously hypertensive rats after oral administration; format: in vivo; conditions: groups of four rats; for Blood Pressure: systolic; for effect on systolic blood pressure (in words): oral administration
Experimental: Blood pressures were read prior to drug administration and at 1.5, 4 and 24 hours thereafter using a Decker Caudal Plethysmograph.

Compound	IC50 [1] [nM]	Blood Pressure ([2]; 150 mg/kg PO, 1.5 hours) [mmHg]	Blood Pressure ([2]; 150 mg/kg PO, 4 hours) [mmHg]	effect on systolic blood pressure (in words) [2]	Blood Pressure ([2]; 50 mg/kg PO, 1.5 hours) [mmHg]	Blood Pressure ([2]; 50 mg/kg PO, 4 hours) [mmHg]	Blood Pressure ([2]; 50 mg/kg PO, 24 hours) [mmHg]
NCCCC[C@H](NC(CCc1ccccc1)C(=O)O)C(=O)N(CC(=O)O)c1ccccc1 (mixture of isomers) [Example 2, N^α -(DL-1-carboxy-3-phenylpropyl)-L-lysyl-N-phenylglycine]	146	196	194	reduce systolic blood pressure			
N^α -(DL-1-carboxy-3-phenylpropyl)-L-lysyl-N-p-methoxyphenylglycine [Example 3]				reduce systolic blood pressure	183	181	204

Source: US4487716A, “N-(1-Carboxy-3-phenylpropyl)-dipeptides” (American Home Products Corporation, priority 1982, dated 1984)
